Assay results reported in article PMC11790949, “A multiplex method for rapidly identifying viral protease inhibitors” (Molecular Systems Biology, 2025).
Like-named read-outs stand apart in the source and are kept apart here.

What was measured:
BWCoV-SW1-3CL = assay type: cell-based, Beluga whale coronavirus SW1
MERS-CoV-3CL = MERS-CoV-3CL (Middle East respiratory syndrome-related coronavirus, UniProt K9N7C7); assay type: cell-based
MERS-CoV-PLP = MERS-CoV-PLP (Middle East respiratory syndrome-related coronavirus, UniProt K9N7C7); assay type: cell-based
SARS-CoV-PLP [1] = biological target: T1, SARS-CoV-PLP (Severe acute respiratory syndrome coronavirus, UniProt P0C6X7); experiment: cell-based
Bat-SL-CoVZC45-PLP [2] = biological target: T2, Bat-SL-CoVZC45-PLP (Bat SARS-like coronavirus, UniProt A0A2R3SV02); assay type: cell-based
HCoV-229E-3CL = HCoV-229E-3CL (Human coronavirus 229E, UniProt P0C6X1); assay type: cell-based
SARS-CoV-2-3CL [3] = biological target: T3, SARS-CoV-2-3CL (Severe acute respiratory syndrome coronavirus 2, UniProt P0DTD1); assay type: cell-based
Bat-CoV-HKU9-3CL = Bat-CoV-HKU9-3CL (Bat coronavirus HKU9, UniProt P0C6W5); assay type: cell-based
HAV-3C = HAV-3C (Human hepatitis A virus genotype IB, UniProt P08617); assay type: cell-based
HCoV-HKU1-3CL = HCoV-HKU1-3CL (Human coronavirus HKU1, UniProt P0C6X2); assay type: cell-based
Bat-CoV-HKU4-3CL = Bat-CoV-HKU4-3CL (Bat coronavirus HKU4, UniProt P0C6W3); assay type: cell-based
HCoV-NL63-3CL = HCoV-NL63-3CL (Human coronavirus NL63, UniProt P0C6X5); assay type: cell-based
SARS-CoV-3CL = SARS-CoV-3CL (Severe acute respiratory syndrome coronavirus, UniProt P0C6X7); assay type: cell-based
SARS-CoV-2-3CL [4] = biological target: T3, SARS-CoV-2-3CL; experiment: cell-based
Bat-SV-CoVZC45-3CL = assay type: cell-based, Bat SL-CoVZC45
SARS-CoV-2 PLP [5] = biological target: T4, SARS-CoV-2 PLP (Severe acute respiratory syndrome coronavirus 2, UniProt P0DTD1); assay type: biochemical
SARS-CoV-2 PLP [6] = biological target: T4, SARS-CoV-2 PLP; experiment: biochemical
SARS-CoV-2 [7] = experiment: microbe, parasite or virus in culture; assay type: cell-based; conditions: Severe acute respiratory syndrome coronavirus 2, 24 h, read-out: A549-C3 (ACE2/TMPRSS2) IC50, inhibition of SARS-CoV-2 viral replication
SARS-CoV-2 PLP [8] = biological target: T4, SARS-CoV-2 PLP; assay type: cell-based
CV-B3-3C = CV-B3-3C (Coxsackievirus B3, UniProt P03313); assay type: cell-based
SV-A-3C = assay type: cell-based, Salivirus
SARS-CoV-2 [9] = experiment: microbe, parasite or virus in culture; assay type: cell-based; conditions: Severe acute respiratory syndrome coronavirus 2, Huh-7, 24 h, read-out: IC50, inhibition of SARS-CoV-2 viral replication in Huh7 cells
SARS-CoV-2 PLP [10] = biological target: T4, SARS-CoV-2 PLP; assay type: cell-based; remark: listed apart in the source
Bat-SL-CoVZC45-PLP [11] = biological target: T2, Bat-SL-CoVZC45-PLP; assay type: cell-based; remark: listed apart in the source
SARS-CoV-PLP [12] = biological target: T1, SARS-CoV-PLP; assay type: cell-based
POWV-NS2B-GS-NS3 = assay type: cell-based, tick-borne Powassan virus
HIV-1-PR = HIV-1-PR (Human immunodeficiency virus type 1 group M subtype B, UniProt P04585); assay type: cell-based
HIV-2-PR = HIV-2-PR (Human immunodeficiency virus type 2 subtype A, UniProt P04584); assay type: cell-based
SARS-CoV-2 [13] = assay type: cell-based
SARS-CoV-2 3CL protease = SARS-CoV-2 3CL protease (Severe acute respiratory syndrome coronavirus 2, UniProt P0DTD1); experiment: Biochemical inhibition of peptide cleavage by purified SARS-CoV-2 3CL protease (fluorogenic)

N#CCS(=O)(=O)c1cccc[n+]1[O-] [NSC361056]
magratio (BWCoV-SW1-3CL): 0.7101

CN(C(=O)c1ccncc1)c1ccccc1 [NSC204976]
magratio (MERS-CoV-3CL): 0.3045

Cc1cc(N(C)C)ccc1N=Nc1ccc2ncccc2c1 [NSC680516]
magratio (MERS-CoV-PLP): 0.228

O=C(c1ccccc1)C(c1ccccc1)(c1ccccc1)c1ccccc1 [MAVDA-B-194]
activity in the yeast assay for SARS-CoV PLP (SARS-CoV-PLP [1]): inactive
activity in the yeast assay for Bat SL-CoVZC45 PLP (Bat-SL-CoVZC45-PLP [2]): inactive

O=C(Oc1ccc2ccc(=O)oc2c1)c1cccs1 [CB6762077]
magratio (HCoV-229E-3CL): 0.2867
magratio (SARS-CoV-2-3CL [3]): 0.436
magratio (Bat-CoV-HKU9-3CL): 0.9258
magratio (BWCoV-SW1-3CL): 0.4066
magratio (HAV-3C): 0.356
magratio (HCoV-HKU1-3CL): 0.5727
magratio (Bat-CoV-HKU4-3CL): 0.7004
magratio (HCoV-NL63-3CL): 0.351
magratio (SARS-CoV-3CL): 0.6861
EC50 (SARS-CoV-2-3CL [4]): 7.7 µM
magratio (Bat-SV-CoVZC45-3CL): 0.28

CCOC(=O)C(=O)Cc1nc2ccccc2s1 [NSC38490]
magratio (MERS-CoV-3CL): 0.2455

CCOc1ccnc(C)c1OC(=O)NC [MAVDA-B-190]
trend in IC50 as a function of pre-incubation time with SARS-CoV-2 PLP (SARS-CoV-2 PLP [5]): downward trend in IC50
IC50 (SARS-CoV-2 PLP [6]): 14.2 µM
EC50 (SARS-CoV-PLP [1]): 0.4 to 1.7 µM
IC50 (SARS-CoV-2 [7]): > 50 µM

CNC(=O)Oc1c(OCc2ccccc2)ccnc1C [MAVDA-B-201]
trend in IC50 as a function of pre-incubation time with SARS-CoV-2 PLP (SARS-CoV-2 PLP [5]): downward trend in IC50
IC50 (SARS-CoV-2 PLP [6]): 9.8 µM
EC50 (SARS-CoV-PLP [1]): 0.4 to 1.7 µM
IC50 (SARS-CoV-2 [7]): 41.2 µM

CCOC(=O)c1c(NC(=S)NC)sc2c1CCCC2 [NSC280492]
magratio (Bat-CoV-HKU4-3CL): 0.288

GRL0617 [reference compound]
response of the SARS-CoV-2 PLP yeast model (SARS-CoV-2 PLP [8]): blunted response

S=c1[nH]c2ccccc2n2cccc12 [NSC246415]
magratio (Bat-CoV-HKU4-3CL): 0.2265

CCc1cc(=O)oc2cc(OC(=O)c3ccco3)ccc12 [CB6728297]
magratio (HCoV-229E-3CL): 0.2941
magratio (SARS-CoV-2-3CL [3]): 0.9863
magratio (Bat-CoV-HKU9-3CL): 0.9832
magratio (BWCoV-SW1-3CL): 0.3619
magratio (CV-B3-3C): 0.2591
magratio (HAV-3C): 0.4338
magratio (HCoV-HKU1-3CL): 0.5819
magratio (Bat-CoV-HKU4-3CL): 0.5386
magratio (HCoV-NL63-3CL): 0.2557
magratio (SARS-CoV-3CL): 1.394
EC50 (SARS-CoV-2-3CL [4]): 5.6 µM
magratio (MERS-CoV-3CL): 0.4038
magratio (Bat-SV-CoVZC45-3CL): 0.6214

O=C(Oc1cncc(Cl)c1)c1cccs1 [MAC-5576, reference compound]
magratio (HCoV-229E-3CL): 1.36
magratio (SV-A-3C): 1.579
magratio (SARS-CoV-2-3CL [3]): 0.9818
magratio (Bat-CoV-HKU9-3CL): 1.805
magratio (BWCoV-SW1-3CL): 1.841
magratio (HAV-3C): 0.7585
magratio (HCoV-HKU1-3CL): 1.559
magratio (Bat-CoV-HKU4-3CL): 0.8566
magratio (HCoV-NL63-3CL): 1.688
magratio (SARS-CoV-3CL): 2.282
magratio (MERS-CoV-3CL): 1.133
magratio (Bat-SV-CoVZC45-3CL): 1.703

COc1cc(O)c(C(=O)/C=C/c2ccccc2)c(OC)c1 [NSC51351]
magratio (SV-A-3C): 0.2675
magratio (HCoV-HKU1-3CL): 0.2725

CNC(=O)Oc1c(OC(C)C)ccnc1C [MAVDA-B-217]
trend in IC50 as a function of pre-incubation time with SARS-CoV-2 PLP (SARS-CoV-2 PLP [5]): downward trend in IC50
IC50 (SARS-CoV-2 PLP [6]): 5.8 µM
EC50 (SARS-CoV-PLP [1]): 0.4 to 1.7 µM
IC50 (SARS-CoV-2 [7]): 49.8 µM

CNCC(N)=O.Cl [MAVDA-B-195]
activity in the yeast assay for SARS-CoV PLP (SARS-CoV-PLP [1]): inactive
activity in the yeast assay for Bat SL-CoVZC45 PLP (Bat-SL-CoVZC45-PLP [2]): inactive

CNC(=O)Oc1c(OCC2CCCCC2)ccnc1C [MAVDA-B-219]
IC50 (SARS-CoV-2 [9]): 16.3 µM
trend in IC50 as a function of pre-incubation time with SARS-CoV-2 PLP (SARS-CoV-2 PLP [5]): downward trend in IC50
IC50 (SARS-CoV-2 PLP [6]): 3.5 µM
EC50 (SARS-CoV-PLP [1]): 0.4 to 1.7 µM
IC50 (SARS-CoV-2 [7]): 14.9 µM

CNC(=O)Oc1c(C)[nH]ccc1=O [NSC287495]
magratio (SARS-CoV-2 PLP [10]): 0.3486
EC50 (SARS-CoV-PLP [1]): 22.8 µM
response of the SARS-CoV-2 PLP yeast model (SARS-CoV-2 PLP [8]): relatively weak response
magratio (Bat-SL-CoVZC45-PLP [11]): 0.8718
magratio (SARS-CoV-PLP [12]): 0.9749
magratio (MERS-CoV-PLP): 0.4201

NC(N)=NC(=S)Nc1ccc(Cl)cc1 [NSC403374]
magratio (SARS-CoV-2-3CL [3]): 0.7395
magratio (SARS-CoV-3CL): 0.3199
magratio (Bat-SV-CoVZC45-3CL): 0.2507

Cc1cc2c(cc1C)N(C(=O)CCl)CC(=O)N2 [NSC138389]
magratio (SARS-CoV-2-3CL [3]): 0.2809
magratio (BWCoV-SW1-3CL): 0.6472
magratio (HCoV-HKU1-3CL): 0.303
magratio (Bat-CoV-HKU4-3CL): 0.217
magratio (POWV-NS2B-GS-NS3): 0.5885
magratio (Bat-SL-CoVZC45-PLP [11]): 0.922
magratio (LGTV-NS2B-GS-NS3): 0.3021
magratio (Bat-SV-CoVZC45-3CL): 0.2787
magratio (SARS-CoV-PLP [12]): 0.5699

Cc1cccc(C)c1OCC(=O)N[C@@H](Cc1ccccc1)[C@@H](O)C[C@H](Cc1ccccc1)NC(=O)[C@H](C(C)C)N1CCCNC1=O [Lopinavir]
magratio (HIV-1-PR): 1.188
magratio (HIV-2-PR): 0.9971

Cc1ccc(S)cc1.[Pb] [MAVDA-B-191]
activity in the yeast assay for SARS-CoV PLP (SARS-CoV-PLP [1]): inactive
activity in the yeast assay for Bat SL-CoVZC45 PLP (Bat-SL-CoVZC45-PLP [2]): inactive

CCSc1nc(=S)cc(C)[nH]1 [NSC67307]
magratio (MERS-CoV-3CL): 0.2279

CNC(=O)Oc1c(OC)ccnc1C [MAVDA-B-116]
trend in IC50 as a function of pre-incubation time with SARS-CoV-2 PLP (SARS-CoV-2 PLP [5]): downward trend in IC50
IC50 (SARS-CoV-2 PLP [6]): 18.1 µM
EC50 (SARS-CoV-PLP [1]): 0.4 to 1.7 µM
IC50 (SARS-CoV-2 [7]): 16.6 µM

N#Cc1c(N)nc(N)nc1Nc1ccc(Br)cc1 [NSC71866]
magratio (SV-A-3C): 0.2095
magratio (LGTV-NS2B-GS-NS3): 0.2846

O=C(Oc1ccc2ccc(=O)oc2c1)c1ccco1 [CB6778425]
magratio (HCoV-229E-3CL): 0.4915
magratio (SARS-CoV-2-3CL [3]): 0.6675
magratio (Bat-CoV-HKU9-3CL): 0.8169
magratio (BWCoV-SW1-3CL): 0.6941
magratio (HAV-3C): 0.5812
magratio (HCoV-HKU1-3CL): 0.7283
magratio (Bat-CoV-HKU4-3CL): 0.5241
magratio (HCoV-NL63-3CL): 0.4867
activity within a live virus setting (SARS-CoV-2 [13]): minimal activity
magratio (SARS-CoV-3CL): 0.5878
EC50 (SARS-CoV-2-3CL [4]): 0.782 µM
magratio (MERS-CoV-3CL): 0.8027
shift of IC50 upon pre-incubation with SARS-CoV-2 3CL (SARS-CoV-2 3CL protease; addition of substrate at 0 and 20 minutes): shifts to lower IC50s
IC50 (SARS-CoV-2 3CL protease; biochemical fluorogenic assay, read-out: IC50, purified SARS-CoV-2 3CL protease): 0.062 µM
magratio (Bat-SV-CoVZC45-3CL): 0.8357
